System: sunburn
Test: Ultraviolet preventive effect, application test on beach in summer (Test Example 2)
Type: in vivo, human
Method: An application test was carried out on beach in summer. Equal volumes of samples were individually coated on back halves of subjects. After exposure to direct daylight, the degree of sunburn was assessed according to the following assessment standards. Each group consists of 10 subjects.
Prominently effective: none or almost no sunburn symptom was observed.
Effective: light sunburn symptom was observed.
Ineffective: strong sunburn symptom was observed.
⊚: prominently effective or effective for 80% or more of the subjects.
◯: prominently effective or effective for 50% or more to less than 80% of the subjects.
Δ: prominently effective or effective for 30% or more to less than 50% of the subjects.
x: prominently effective or effective for less than 30% of the subjects.
The aqueous phase and the alcohol phase were separately prepared and then mixed together.
Propylene glycol was added to and dissolved in ion exchange water. The resulting solution was retained at 70° C. under heating (aqueous phase). Other ingredients were mixed […]. The resulting mixture was melted under heating and retained at 70° C. (oil phase). The oil phase was added to the aqueous phase, for preliminary emulsification with a homomixer to homogeneity. Under thorough mixing, subsequently, the mixture was cooled to 30° C.

[1] = cream, blend amount 0.0005 wt %
[2] = lotion, blend amount 0.0005 wt %
[3] = lotion, blend amount 0.001 wt %

SMILES | Ultraviolet prevention effect [1] | Ultraviolet prevention effect (cream, blend amount 0.001 wt %) | Ultraviolet prevention effect (cream, blend amount 0.01 wt %) | Ultraviolet prevention effect (cream, blend amount 1 wt %) | Ultraviolet prevention effect (cream, blend amount 5 wt %) | Ultraviolet prevention effect (cream, blend amount 10 wt %) | Ultraviolet prevention effect (cream, blend amount 20 wt %) | Ultraviolet prevention effect [2] | Ultraviolet prevention effect [3] | Ultraviolet prevention effect (lotion, blend amount 0.01 wt %) | Ultraviolet prevention effect (lotion, blend amount 1 wt %) | Ultraviolet prevention effect (lotion, blend amount 5 wt %) | Ultraviolet prevention effect (lotion, blend amount 10 wt %) | Ultraviolet prevention effect (lotion, blend amount 20 wt %)
Oc1nncc(N2CCCCC2)c1N1CCCCC1 [4,5-Dipiperidino-3-hydroxypyridazine] | Δ (prominently effective or effective for 30% or more to less than 50% of the subjects) | ◯ (prominently effective or effective for 50% or more to less than 80% of the subjects) | ⊚ (prominently effective or effective for 80% or more of the subjects) | ⊚ (prominently effective or effective for 80% or more of the subjects) | ⊚ (prominently effective or effective for 80% or more of the subjects) | ⊚ (prominently effective or effective for 80% or more of the subjects) | ⊚ (prominently effective or effective for 80% or more of the subjects) | Δ (prominently effective or effective for 30% or more to less than 50% of the subjects) | ◯ (prominently effective or effective for 50% or more to less than 80% of the subjects) | ⊚ (prominently effective or effective for 80% or more of the subjects) | ⊚ (prominently effective or effective for 80% or more of the subjects) | ⊚ (prominently effective or effective for 80% or more of the subjects) | ⊚ (prominently effective or effective for 80% or more of the subjects) | ⊚ (prominently effective or effective for 80% or more of the subjects)
Oc1cc(N2CCOCC2)cnn1 [3-Hydroxy-5-morpholinopyridazine, 3-hydroxy-5-morpholinopyridazine] | Δ (prominently effective or effective for 30% or more to less than 50% of the subjects) | ◯ (prominently effective or effective for 50% or more to less than 80% of the subjects) | ⊚ (prominently effective or effective for 80% or more of the subjects) | ⊚ (prominently effective or effective for 80% or more of the subjects) | ⊚ (prominently effective or effective for 80% or more of the subjects) | ⊚ (prominently effective or effective for 80% or more of the subjects) | ⊚ (prominently effective or effective for 80% or more of the subjects) | Δ (prominently effective or effective for 30% or more to less than 50% of the subjects) | ◯ (prominently effective or effective for 50% or more to less than 80% of the subjects) | ⊚ (prominently effective or effective for 80% or more of the subjects) | ⊚ (prominently effective or effective for 80% or more of the subjects) | ⊚ (prominently effective or effective for 80% or more of the subjects) | ⊚ (prominently effective or effective for 80% or more of the subjects) | ⊚ (prominently effective or effective for 80% or more of the subjects)
